In patent US20210079402A1, “INHIBITION OF ZSCAN4 FOR INHIBITION OF TUMOR GROWTH” (University of Maryland, Baltimore, priority 2018, published 2021):
Where a SMILES comes first, the peptide text is derived from it. The star is where a group is joined. Cbz = O=C(OCc1ccccc1)*

Experiments:
[1] = test system: autophagy in tet-ZSCAN4 Tu167 cells; assay: Autophagy pathway assay (immunoblot); format: cell-based, human; conditions: 5 nM Bafilomycin A1 or 25 μM Chloroquine
Procedure: tet-ZSCAN4 Tu167 cells were treated for 24 h with Dox and then autophagy inhibitors: 5 nM of Bafilomycin A1 or 25 μM of Chloroquine (Sigma) were added for 24 h. Whole cell lysate (50 μg) in RIPA buffer was used on 8% SDS-PAGE analyzed by immunoblot to visualize the following antigens: anti-ZSCAN4 (1:1000; Origene), anti-p62 (1:5000; Sigma), anti-LC3 (1:1000; CellSignaling Technology), Anti-Beta Actin (1:10,000; Millipore). All data shown represent at least 3 independent experiments.

proteasome [2] = assay: ZSCAN4 accumulation after proteasome inhibition (immunoblot); format: cell-based, human
Procedure: Nuclear proteins were fractionated using Nuclear Extraction Kit following manufacture's protocol (Active Motif). Total cell lysate was prepared in RIPA buffer and sonicated. For the detection of endogenous ZSCAN4 in Tu167 cells, cells were harvested by accutase (Millipore) and Cytoskeleton buffer (10 mM PIPES, 300 mM sucrose, 100 mM NaCl, 3 mM MgCl2, 1 mM EGTA and 0.5% Triton X100) was used to fractionate cytosolic proteins. Then, pellets were lysed in urea solution (8 M Urea in 0.01 Tris pH 8+0.1 M NaH2PO4) and sonicated. Nuclear proteins were electrophoresed in 8% polyacrylamide gels and transferred to a PVDF membrane. Immunoblot was performed using the following primary antibodies: ZSCAN4 (Origene; 1:1000), GAPDH (Santa Cruz; 1:5000), Actin (Sigma; 1:500), Lamin B (Santa Cruz; 1:2000) and with HRP (horseradish peroxidase) conjugated secondary antibodies (Millipore; 1:5000). Protein bands were detected using Pierce ECL Western Blotting Substrate (Thermo Scientific). SuperSignal West Femto (Thermo Scientific) was used to detect endogenous ZSCAN4 in Tu167 cells. All immunoblots shown represent at least 3 independent experiments.
WT Tu167 cells were treated with indicated concentration of MG132 for 3-12 h. Cells treated with vehicle only were used as controls. Nuclear protein was isolated using urea extraction buffer. Then, 100 μg of nuclear lysate was diluted in IP-RIPA buffer with 0.1% SDS and denatured by heating to 90° C. for 10 minutes. Samples were taken for co-immunoprecipitation and immunoblot analyses.
This prompted examination of the UPS. tet-ZSCAN4 cells were incubated with the proteasome inhibitor MG132 at multiple time points. […] Furthermore, we show a time dependence (FIG. 18C) and a dose response (FIG. 18D) to proteasome inhibition by MG132.
To exclude that the response was specific to the exogenous ZSCAN4 induction, wild type (WT) Tu167 cells were treated with 5 uM MG132 for 0-12 h.

proteasome [3] = assay: ZSCAN4 / K48 ubiquitin co-localization by confocal microscopy; format: cell-based, human; conditions: WT Tu167 cells, 5 h; untreated about 5%
Procedure: Cells were fixed in ice cold methanol/acetic acid (3:1). The fixed cells were dropped on microscope slides. Antigen retrieval was performed followed by blocking for 10 min at room temperature. Primary antibody was incubated overnight at 4° C. for the following antigens: ZSCAN4 (Origene, 1:1000) and Ubiquitin Lysine 48 (Millipore 1: 2000). The slides were washed and incubated with secondary antibodies conjugated with Alexa-488 or 568 at room temperature for 1 h and then treated with DAPI and To-Pro-3 to stain the nuclei. Slides were mounted and visualized by a Zeiss 510-confocal microscope. Co-localization analyses were performed by ImageJ software (Schneider et al., 2012);
To further validate the lysine 48 polyubiquitination of ZSCAN4 protein, WT Tu167 cells were treated with or without MG132 for 5 h and co-immunostained for anti-K48-Ub and anti-ZSCAN4 (FIG. 19C).

telomerase = target: T1, telomerase (UniProt O14746 1-1132, limits assumed); assay: ZSCAN4 complex analysis (ZSCAN4 immunoprecipitation followed by mass spectrometry)
T1 construct: The tie to the hTERT protein subunit is my reading; also called hTERT
T1 sequence (O14746 whole entry): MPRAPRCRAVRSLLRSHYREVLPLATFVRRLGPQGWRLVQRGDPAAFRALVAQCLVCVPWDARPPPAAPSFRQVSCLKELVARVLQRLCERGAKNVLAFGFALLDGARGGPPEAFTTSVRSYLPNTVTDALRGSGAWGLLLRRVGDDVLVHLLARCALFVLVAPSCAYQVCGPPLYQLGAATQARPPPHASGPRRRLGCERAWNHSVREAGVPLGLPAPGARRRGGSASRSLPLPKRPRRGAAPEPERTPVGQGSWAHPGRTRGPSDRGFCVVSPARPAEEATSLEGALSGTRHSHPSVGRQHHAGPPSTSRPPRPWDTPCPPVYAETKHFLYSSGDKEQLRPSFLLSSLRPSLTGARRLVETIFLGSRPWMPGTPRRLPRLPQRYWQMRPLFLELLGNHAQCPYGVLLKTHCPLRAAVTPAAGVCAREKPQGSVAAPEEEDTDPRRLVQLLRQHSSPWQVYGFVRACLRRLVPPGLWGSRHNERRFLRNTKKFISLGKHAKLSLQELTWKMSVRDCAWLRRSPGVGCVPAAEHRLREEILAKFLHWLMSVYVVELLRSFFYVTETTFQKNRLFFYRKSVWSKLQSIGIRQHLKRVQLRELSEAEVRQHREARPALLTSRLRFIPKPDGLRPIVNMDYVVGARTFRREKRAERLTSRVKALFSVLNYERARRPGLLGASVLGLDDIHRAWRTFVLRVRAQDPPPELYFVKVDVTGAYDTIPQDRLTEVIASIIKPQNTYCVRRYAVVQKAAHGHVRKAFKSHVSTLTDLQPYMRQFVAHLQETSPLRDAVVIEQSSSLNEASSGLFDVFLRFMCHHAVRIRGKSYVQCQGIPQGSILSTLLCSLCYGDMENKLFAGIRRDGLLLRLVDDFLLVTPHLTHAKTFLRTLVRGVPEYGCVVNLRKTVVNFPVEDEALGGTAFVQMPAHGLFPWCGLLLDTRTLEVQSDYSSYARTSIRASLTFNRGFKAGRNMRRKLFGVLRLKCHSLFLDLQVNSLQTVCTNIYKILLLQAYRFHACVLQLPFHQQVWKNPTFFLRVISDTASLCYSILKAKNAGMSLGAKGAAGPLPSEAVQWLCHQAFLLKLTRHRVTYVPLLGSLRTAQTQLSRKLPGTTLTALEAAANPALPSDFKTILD

CO/C1=C\C(C)=C\[C@@H](C)[C@@H](O)[C@@H](C)C/C(C)=C/C=C/[C@H](OC)[C@@H]([C@@H](C)[C@@H](O)[C@H](C)[C@@]2(O)C[C@@H](O)[C@H](C)[C@@H](C(C)C)O2)OC1=O [Bafilomycin A1]
ZSCAN4 levels [1]: remained unchanged | p62 and LC-3 levels [1]: accumulate

CCN(CC)CCCC(C)Nc1ccnc2cc(Cl)ccc12 (stereo not drawn) [Chloroquine]
ZSCAN4 levels [1]: remained unchanged | p62 and LC-3 levels [1]: accumulate

CC(C)C[C@@H](C=O)NC(=O)[C@H](CC(C)C)NC(=O)[C@H](CC(C)C)NC(=O)OCc1ccccc1 [MG132] (Cbz-Leu-Leu-Leu-aldehyde)
ZSCAN4 accumulation versus dose (proteasome [2]; tet-ZSCAN4 cells): dose response | ZSCAN4 accumulation over time (proteasome [2]; tet-ZSCAN4 cells, multiple time points through 12 h): time dependent accumulation of ZSCAN4 | endogenous ZSCAN4 level (proteasome [2]; wild type Tu167 cells, 5 uM, 0-12 h): endogenous ZSCAN4 accumulates | fraction of ZSCAN4 co-localized with K48-Ub relative to untreated (proteasome [3]): 4 fold

B1: human ZSCAN4 (Zinc finger and SCAN domain containing 4) (other, UniProt Q8NAM6 1-433, looked up)
chain: MALDLRTIFQCEPSENNLGSENSAFQQSQGPAVQREEGISEFSRMVLNSFQDSNNSYARQELQRLYRIFHSWLQPEKHSKDEIISLLVLEQFMIGGHCNDKASVKEKWKSSGKNLERFIEDLTDDSINPPALVHVHMQGQEALFSEDMPLRDVIVHLTKQVNAQTTREANMGTPSQTSQDTSLETGQGYEDEQDGWNSSSKTTRVNENITNQGNQIVSLIIIQEENGPRPEEGGVSSDNPYNSKRAELVTARSQEGSINGITFQGVPMVMGAGCISQPEQSSPESALTHQSNEGNSTCEVHQKGSHGVQKSYKCEECPKVFKYLCHLLAHQRRHRNERPFVCPECQKGFFQISDLRVHQIIHTGKKPFTCSMCKKSFSHKTNLRSHERIHTGEKPYTCPFCKTSYRQSSTYHRHMRTHEKITLPSVPSTPEAS
notes: Immunoprecipitated from nuclear protein lysates; also called FLAG-ZSCAN4; tet-FLAG-ZSCAN4
binding result (telomerase): no binding
